One assay has as its target T1, CDK2/CyclinA2 (Homo sapiens, UniProt P24941).
T1 construct: purchased Promega
Briefly: CDK2/CyclinA2 kinase activity test (ADP-Glo). In kind it is biochemical. The settings on record: 50 μM ATP, 25° C., 60 minutes; read-out: Enzyme activity data (IC50) CDK2/cyclinA. How it is done: Experimental materials: CDK2/CyclinA2 kinase detection kit was purchased from Promega. Nivo Multilabel Analyzer (PerkinElmer).
Experimental method: Kinase buffer dilution enzyme in the kit, substrate, adenosine triphosphate and inhibitor were used. The compounds to be tested were diluted 5-fold to the 8th concentration with a row gun, that is, from 50 μM to 0.65 nM, the concentration of DMSO was 5%, and a double-replicate well experiment was set up. 1 μL of each concentration gradient of inhibitor, 2 μL of CDK2/CyclinA2 enzyme (1.6 ng), and 2 μL of a mixture of substrate and ATP (50 μM of adenosine triphosphate, 0.1 μg/μL of substrate) were added to the microplate, and at this time, the final concentration gradient of compound was diluted from 10 μM to 0.13 nM. The reaction system was placed at 25° C. and reacted for 60 minutes. After the reaction was complete, 5 μL of ADP-Glo reagent was added to each well, and the reaction was continued at 25° C. for 40 minutes. At the end of the reaction, 10 μL of kinase detection reagent was added to each well. After the reaction was continued at 25° C. for 30 minutes, the chemiluminescence was read by a multi-label analyzer with an integration time of 0.5 seconds.
Using the equation (Sample−Min)/(Max−Min)×100% to convert the original data into inhibition rate, the IC50 value can be obtained by curve fitting with four parameters (obtained by the mode of log(inhibitor) vs. response—Variable slope in GraphPad Prism). Table 1 provides the enzymatic inhibitory activities of the compounds of the present invention on CDK2/CyclinA2, CDK2/CyclinE1, CDK4/CyclinD1, CDK6/CyclinD1, CDK9/CyclinT1.

The target in the next assay is T2, CDK6/CyclinD1 (Homo sapiens, UniProt Q00534).
T2 construct: purchased Carna
T2 sequence (Q00534 whole entry): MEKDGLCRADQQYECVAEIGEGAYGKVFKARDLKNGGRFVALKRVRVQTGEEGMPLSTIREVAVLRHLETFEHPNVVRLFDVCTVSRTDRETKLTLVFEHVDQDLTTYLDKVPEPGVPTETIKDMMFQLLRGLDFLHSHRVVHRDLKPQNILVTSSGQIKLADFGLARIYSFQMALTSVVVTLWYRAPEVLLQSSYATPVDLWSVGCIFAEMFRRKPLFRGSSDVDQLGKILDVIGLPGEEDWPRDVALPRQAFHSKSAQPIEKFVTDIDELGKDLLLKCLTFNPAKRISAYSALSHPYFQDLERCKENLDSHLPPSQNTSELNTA
T2 sequence (P24385 whole entry partner): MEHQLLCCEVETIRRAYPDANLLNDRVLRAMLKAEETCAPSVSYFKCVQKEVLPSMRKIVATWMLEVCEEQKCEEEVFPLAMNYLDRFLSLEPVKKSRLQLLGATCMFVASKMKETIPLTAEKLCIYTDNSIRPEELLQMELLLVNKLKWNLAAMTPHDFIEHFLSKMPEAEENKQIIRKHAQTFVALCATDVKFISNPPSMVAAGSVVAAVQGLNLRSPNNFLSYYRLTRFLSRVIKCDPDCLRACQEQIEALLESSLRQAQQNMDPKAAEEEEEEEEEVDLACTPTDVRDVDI
Briefly: CDK6/CyclinD1 kinase activity test (LANCE Ultra TR-FRET). Conditions: 250 μM ATP, 25° C., 120 minutes; read-out: Enzyme activity data (IC50) CDK6/cyclinD1. It counts as biochemical. How it is done:
Experimental materials: CDK6/CyclinD1 kinase was purchased from Carna, reaction substrate LANCE Ultra ULight™-4E-BP-1 (Thr37146) Peptide and EU-ANTI-P-4EBP1 (THR37/46) were purchased from PerkinElmer. Nivo Multilabel Analyzer (PerkinElmer).
Experimental method: preparation of kinase buffer: The components of the buffer include: 50 mM of hydroxyethylpiperazine […] solution with pH 7.5, 1 mM of EDTA, 10 mM of magnesium chloride, 0.01% lauryl polyoxyethylene ether (Brij-35), 2 mM of enzyme dithiothreitol, kinase buffer dilution enzyme, substrate LANCE Ultra ULight™-4E-BP-1 (Thr37146) Peptide, adenosine triphosphate and inhibitor. […] The reaction system was continued at 25° C. for 120 minutes. After the reaction was complete, a mixture of 5 μL of EDTA and 2× LANCE™ Detection Buffer (1:1) was added to each well, and reacted at 25° C. for 5 minutes, after the reaction was complete, 5 μL of LANCE Ultra Eu-anti-P-4E-BP1(Thr37MS) (4 nM) was added to each well, and reacted at 25° C. for 60 minutes, the reaction signal was detected by Nivo instrument according to the principle of time-resolved fluorescence resonance energy transfer.
Table 1 provides the enzymatic inhibitory activities of the compounds of the present invention on CDK2/CyclinA2, CDK2/CyclinE1, CDK4/CyclinD1, CDK6/CyclinD1, CDK9/CyclinT1.
On the technique in general: TR-FRET usually uses a lanthanide donor and a delayed reading to cut background.

The subject of the next assay is MDA-MB-468 cells. Briefly: MDA-MB-468 cell activity test (CellTiter-Glo). It counts as cell-based. How it is done: Experimental materials: L15 medium, fetal bovine serum, penicillin/streptomycin antibiotics were purchased from Vicente. CellTiter-Glo (chemiluminescence detection reagent for cell viability) reagent was purchased from Promega. The MDA-MB-468 cell line was purchased from Cobioer Biosciences Co., Ltd. Nivo Multilabel Analyzer (PerkinElmer).
Experimental method: MDA-MB-468 cells were seeded in a white 96-well plate, 80 μL of cell suspension per well, which contained 1000 MDA-MB-468 cells. The cell plate was incubated overnight in a carbon dioxide incubator. The compounds to be tested were diluted 5-fold to the 9th concentration with a row gun, that is, from 10 mM to 25.6 nM, and a double-replicate well experiment was set up. 78 μL of medium was added to the middle plate, and then transferred 2 μL per well of the gradient diluted compound to the middle plate according to the corresponding position, mixed well and transferred 20 μL per well to the cell plate. The concentration of compound transferred to the cell plate ranged from 50 μM to 0.128 nM. The cell plate was incubated in a carbon dioxide incubator for 7 days. Another cell plate was prepared, and the signal value was read as the maximum value (Max value in the equation below) on the day of drug addition to participate in data analysis. 25 μL of chemiluminescence detection reagent for cell viability was added to each well of the cell plate, and incubated at room temperature for 10 minutes to stabilize the luminescence signal. A multi-label analyzer was used for reading.
Data analysis: Using the equation (Sample−Min)/(Max−Min)×100% to convert the original data into inhibition rate, the IC50 value can be obtained by curve fitting with four parameters (obtained by the mode of log(inhibitor) vs. response—Variable slope in GraphPad Prism).
(In ATP-based viability assays light output follows the ATP content of the culture.)

For the molecule `C[C@@]1(O)CCC[C@H]1N1C(=O)CCc2cnc(NC3CCN(S(C)(=O)=O)CC3)nc21` [Compound 1A], the IC50 at CDK2/CyclinA2 is 0.28 nM; at CDK6/CyclinD1, 1.5 nM; with MDA-MB-468 cells (Homo sapiens, 168 h, MDA-MB-468 cells (Rb-negative), 7 days, read-out: Antiproliferative activity (IC50) MDA-MB-468) it was 640 nM. In addition, the “Selectivity ratio(MDA-MB-468/HCC1806)” value with MDA-MB-468 cells (ratio of antiproliferative IC50, MDA-MB-468/HCC1806) is 4.1.

For the origin of these results see US12679837B2, “Aminopyrimidine compound as CDK2/4/6 triple inhibitor” (CISEN PHARMACEUTICAL CO., LTD, priority 2019, dated 2026).
